Data: patent US12533323B2, “Slow-release formulation” (GLYCOSCIENCE, S.L., priority 2021, dated 2026)

Assay: Dissolution of trans-PMD glucovanillin conjugate in water
Format: physicochemical
Settings: solid 50 mg in water 0.1 ml
Excerpt: The resultant solution was cooled to room temperature and purified by chromatography over silica by gradient elution using 1:1 EtOAc/hexane to remove residual diol followed by 1:10 MeOH/dichloromethane to afford the title compound as an odourless white solid (0.73 g, 74%).

dissolution in water: readily dissolve
SMILES: COc1cc(C2O[C@H]3C[C@@H](C)CCC3C(C)(C)O2)ccc1O[C@@H]1O[C@H](CO)[C@@H](O)[C@H](O)[C@H]1O (mixture of isomers) [Example 2, Racemic trans-PMD Glucovanillin Conjugate]
